Measurements from article PMC7473772 (eLife, 2020).
Values joined by “and” are separate entries in the source; they are usually repeats but may differ in a detail not shown here. Equal values may be shown once. Read-outs that look alike come from different tables or passages of the source.

Assays:
T. b. brucei 2T1 = assay: Drug sensitivity assay (resazurin); format: cell-based; settings: Trypanosoma brucei, 48 h drug + 24 h resazurin, read-out: EC50 control 2T1 AVG
How it was run: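 Bloodstream-form T. b. brucei 2T1 lines, including tbaqp2/tbaqp3 null, tbaqp1-2-3 null and CRK12 RNAi (1 µg/ml tetracycline), were grown in HMI-11 at 37°C/5% CO2. Compounds were given as doubling dilutions from 100 µM for 48 hr, then resazurin was added for 24 hr.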

[1] = test system: tbaqp2/tbaqp3 null cells expressing TbAQP2^I190T; format: cell-based, Trypanosoma brucei brucei
[2] = test system: tbaqp2/tbaqp3 null cells expressing TbAQP2^W192G; format: cell-based, Trypanosoma brucei brucei
[3] = test system: tbaqp2/tbaqp3 null cells expressing TbAQP2^I190T/W192G; format: cell-based, Trypanosoma brucei brucei
[4] = test system: tbaqp2/tbaqp3 null cells expressing TbAQP2 L118M; assay: microbe, parasite or virus in culture; format: cell-based, Trypanosoma brucei brucei
[5] = test system: tbaqp2/tbaqp3 null cells expressing TbAQP3^W102I/R256L/Y250L; format: cell-based, Trypanosoma brucei brucei
tbaqp1-2-3 null cells = assay: Drug sensitivity assay (resazurin), pentamidine and SHAM; format: cell-based, Trypanosoma brucei brucei; settings: KO AQP1-3
tbaqp2/tbaqp3 null cells = assay: [3H]-pentamidine transport; format: cell-based, Trypanosoma brucei brucei
TbAQP2WT [6] = target: TbAQP2WT (Trypanosoma brucei brucei, UniProt Q6ZXT3); assay: cell-based
TbAQP2WT [7] = assay: cell-based; design: species or system Trypanosoma brucei brucei
TbAQP2^S131P/S263A = TbAQP2^S131P/S263A (Trypanosoma brucei brucei, UniProt Q6ZXT3, S131P/S263A); assay: [3H]-pentamidine transport; format: cell-based; settings: 30 nM [3H]-pentamidine
Chain of TbAQP2^S131P/S263A (Q6ZXT3 whole entry S131P/S263A): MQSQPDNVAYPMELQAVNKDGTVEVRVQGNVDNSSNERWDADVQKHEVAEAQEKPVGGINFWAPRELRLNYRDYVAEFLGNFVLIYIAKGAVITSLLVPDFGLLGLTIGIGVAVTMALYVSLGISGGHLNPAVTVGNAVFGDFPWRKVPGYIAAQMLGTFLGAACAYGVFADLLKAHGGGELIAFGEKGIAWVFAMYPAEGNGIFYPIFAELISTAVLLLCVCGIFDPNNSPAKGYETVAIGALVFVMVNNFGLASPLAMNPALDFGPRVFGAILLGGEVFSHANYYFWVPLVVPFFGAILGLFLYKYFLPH

TbAQP2^L258Y = TbAQP2^L258Y (Trypanosoma brucei brucei, UniProt Q6ZXT3, L258Y); assay: [3H]-pentamidine transport; format: cell-based; settings: 30 nM [3H]-pentamidine
Chain of TbAQP2^L258Y (Q6ZXT3 whole entry L258Y): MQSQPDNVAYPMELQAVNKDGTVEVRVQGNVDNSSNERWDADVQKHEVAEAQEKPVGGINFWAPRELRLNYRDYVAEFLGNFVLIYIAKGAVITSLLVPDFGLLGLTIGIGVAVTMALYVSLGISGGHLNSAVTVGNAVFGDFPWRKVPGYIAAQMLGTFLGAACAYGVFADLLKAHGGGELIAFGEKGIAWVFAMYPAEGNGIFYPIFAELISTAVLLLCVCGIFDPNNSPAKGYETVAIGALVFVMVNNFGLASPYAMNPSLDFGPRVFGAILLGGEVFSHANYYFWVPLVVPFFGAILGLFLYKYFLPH

TbAQP2^I110W = TbAQP2^I110W (Trypanosoma brucei brucei, UniProt Q6ZXT3, I110W); assay: [3H]-pentamidine transport; format: cell-based; settings: 30 nM [3H]-pentamidine
Chain of TbAQP2^I110W (Q6ZXT3 whole entry I110W): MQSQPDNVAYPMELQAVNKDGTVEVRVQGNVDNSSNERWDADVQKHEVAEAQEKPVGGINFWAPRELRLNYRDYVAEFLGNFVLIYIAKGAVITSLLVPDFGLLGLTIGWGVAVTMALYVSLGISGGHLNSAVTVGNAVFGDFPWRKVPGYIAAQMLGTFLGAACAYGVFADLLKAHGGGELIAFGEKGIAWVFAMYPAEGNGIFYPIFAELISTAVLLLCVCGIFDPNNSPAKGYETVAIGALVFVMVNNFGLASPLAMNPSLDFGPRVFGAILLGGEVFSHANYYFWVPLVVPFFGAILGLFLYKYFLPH

TbAQP2^L264R = TbAQP2^L264R (Trypanosoma brucei brucei, UniProt Q6ZXT3, L264R); assay: [3H]-pentamidine transport; format: cell-based; settings: 30 nM [3H]-pentamidine
Chain of TbAQP2^L264R (Q6ZXT3 whole entry L264R): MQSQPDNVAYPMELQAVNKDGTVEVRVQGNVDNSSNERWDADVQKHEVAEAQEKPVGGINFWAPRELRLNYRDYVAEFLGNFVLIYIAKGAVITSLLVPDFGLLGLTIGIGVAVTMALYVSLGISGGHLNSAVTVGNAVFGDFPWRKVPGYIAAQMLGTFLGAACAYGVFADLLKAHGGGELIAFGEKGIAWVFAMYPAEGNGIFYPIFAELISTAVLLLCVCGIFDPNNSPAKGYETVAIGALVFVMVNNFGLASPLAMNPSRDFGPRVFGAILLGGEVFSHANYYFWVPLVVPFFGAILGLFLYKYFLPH

TbAQP2 L84M = TbAQP2 L84M (Trypanosoma brucei brucei, UniProt Q6ZXT3, L84M); assay: [3H]-pentamidine transport; format: cell-based; settings: AQP2 mutant L84M; n=3
Chain of TbAQP2 L84M (Q6ZXT3 whole entry L84M): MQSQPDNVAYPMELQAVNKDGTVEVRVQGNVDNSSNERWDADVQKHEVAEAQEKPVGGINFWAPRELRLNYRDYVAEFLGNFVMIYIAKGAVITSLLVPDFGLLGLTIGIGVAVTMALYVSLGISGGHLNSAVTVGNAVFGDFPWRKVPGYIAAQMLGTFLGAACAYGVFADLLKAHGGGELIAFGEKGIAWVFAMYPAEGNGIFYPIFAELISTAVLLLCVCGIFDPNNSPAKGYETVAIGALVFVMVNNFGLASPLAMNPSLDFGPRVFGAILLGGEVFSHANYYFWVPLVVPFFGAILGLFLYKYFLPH

[8] = target: T1, aqp1/aqp2/aqp3 null cells expressing TbAQP2-WT (Trypanosoma brucei brucei, UniProt Q6ZXT3); assay: Inhibition of [3H]-glycerol uptake; format: cell-based; settings: for glycerol uptake: zero inhibitor point 0.002246
T1 sequence (Q6ZXT3 1-312): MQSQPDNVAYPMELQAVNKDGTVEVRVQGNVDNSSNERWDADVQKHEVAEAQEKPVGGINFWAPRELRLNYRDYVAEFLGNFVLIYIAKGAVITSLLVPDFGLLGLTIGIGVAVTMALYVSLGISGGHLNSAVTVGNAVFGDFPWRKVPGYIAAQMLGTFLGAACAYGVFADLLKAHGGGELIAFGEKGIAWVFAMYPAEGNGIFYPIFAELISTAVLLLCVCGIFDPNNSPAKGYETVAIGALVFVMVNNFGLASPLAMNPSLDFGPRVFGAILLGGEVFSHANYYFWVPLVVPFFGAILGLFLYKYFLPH

[9] = target: T1, aqp1/aqp2/aqp3 null cells expressing TbAQP2-WT; assay: Inhibition of [3H]-pentamidine uptake (dose response); format: cell-based; settings: zero inhibitor point 0.01011
[10] = Trypanosoma brucei, read-out: Alamar blue EC50, single repeats
[11] = read-out: Alamar blue EC50, single repeats
[12] = AQP2/3-dKO, 30 nM [3H]-pentamidine, 1 mM adenosine
[13] = Fig. 3A, exp AQP016-AQP023, AQP2/3-dKO
[14] = Fig. 3A, exp AQP038-AQP041, AQP2/3-dKO
[15] = dKO control of the AQP3 mutant series, over 30 minutes

N=C(N)c1ccc(OCCCCCOc2ccc(C(=N)N)cc2)cc1 [Pentamidine]
EC50 (T. b. brucei 2T1): 15 nM
EC50 as percent of AQP2/3 null EC50, MEAN [1]: 6.89%
EC50 as percent of AQP2/3 null EC50, MEAN [2]: 8.08%
EC50 as percent of AQP2/3 null EC50, MEAN [3]: 99.52%
EC50 as percent of AQP2/3 null EC50, single repeats [3]: 131.67% and 89.434% and 77.4635%
EC50 ([4]; Trypanosoma brucei, read-out: Alamar blue EC50, MEAN): 34.2 nM
EC50 [4, 10]: 39 nM
EC50 ([4]; Trypanosoma brucei, read-out: EC50 AVG): 34.2 nM
EC50 [4, 11]: 39.5 nM and 24.2 nM
EC50 as percent of AQP2/3 null EC50, MEAN [5]: 31.94%
EC50 (tbaqp1-2-3 null cells; [11]): 75.4 nM and 63.9 nM
EC50 (tbaqp1-2-3 null cells; Trypanosoma brucei, 3 repeats, read-out: Alamar blue EC50, MEAN): 69.3 nM
EC50 (tbaqp1-2-3 null cells; [10]): 68.7 nM
Pentamidine transport rate (tbaqp2/tbaqp3 null cells; [12]): 0.00022 pmol/10E7 cells/s and 0.000123 pmol/10E7 cells/s
Pentamidine transport rate, percent of +AQP2-WT (tbaqp2/tbaqp3 null cells; [12]): 0.383% and 1.05%
Pentamidine transport rate AVG (tbaqp2/tbaqp3 null cells; AQP2/3-dKO, n=16): 2.76E-04 pmol/10E7 cells/s
Pentamidine transport rate, percent of +AQP2-WT, AVG (tbaqp2/tbaqp3 null cells; AQP2/3-dKO, n=16): 1.08% of +AQP2-WT
Pentamidine transport rate, AVG (tbaqp2/tbaqp3 null cells; Fig. 3A, exp AQP001-AQP023, AQP2/3-dKO): 2.76E-04 pmol/10E7 cells/s
Pentamidine transport rate as percent of +AQP2-WT, AVG (tbaqp2/tbaqp3 null cells; [13]): 1.32%
Pentamidine transport rate as percent of +AQP2-WT, single experiments (tbaqp2/tbaqp3 null cells; [13]): 1.4% and 1.5% and 1.0%
Pentamidine transport rate as percent of +AQP2-WT, AVG (tbaqp2/tbaqp3 null cells; [14]): 0.383%
Pentamidine transport rate, AVG (tbaqp2/tbaqp3 null cells; [14]): 0.000123 pmol/10E7 cells/s
Pentamidine transport rate, single experiments (tbaqp2/tbaqp3 null cells; [14]): 0.0001045 pmol/10E7 cells/s and 0.0001529 pmol/10E7 cells/s and 0.0001563 pmol/10E7 cells/s and 8.02E-05 pmol/10E7 cells/s
Pentamidine transport rate (tbaqp2/tbaqp3 null cells; [15]): 1.22E-04 pmol/10E7 cells/s
Pentamidine transport rate, percent of TbAQP2WT control (tbaqp2/tbaqp3 null cells; [15]): 0.57%
Transport rate AVG (tbaqp2/tbaqp3 null cells; strain AQKO, unit not given, +AQP2-WT = 100): 1.05
EC50 (TbAQP2WT [6]): 41 ± 17 nM
Pentamidine transport rate AVG (TbAQP2WT [6]): 0.02122 pmol/10E7 cells/s
Pentamidine transport rate as percent of +AQP2-WT, AVG (TbAQP2WT [6]): 100.0%
Pentamidine transport rate as percent of +AQP2-WT, single experiments (TbAQP2WT [6]): 100.0%
Pentamidine transport rate, AVG (TbAQP2WT [6]): 0.02122 pmol/10E7 cells/s and 0.03781 pmol/10E7 cells/s
Pentamidine transport rate, percent of +AQP2-WT, AVG (TbAQP2WT [6]): 100.00% of +AQP2-WT
Transport rate AVG (TbAQP2WT [6]): 100
activity at 0.03 µM (TbAQP2WT [6]; read-out: Pentamidine transport rate, percent of +AQP2-WT): 100%
Km (TbAQP2WT [7]; TbAQP2-WT cells, read-out: Km of low affinity component (LAPT1)): 82.7 ± 17.5 µM
[3H]-pentamidine taken up by the low affinity component (TbAQP2WT [7]; highly similar for TbAQP2^I190T and TbAQP2WT cell lines): approximately 0.0005 pmol(10^7 cells)^−1 s^−1
Pentamidine transport rate (TbAQP2^S131P/S263A): 0.00111 pmol/10E7 cells/s
Pentamidine transport rate (TbAQP2^L258Y): 0.0004 pmol/10E7 cells/s
Pentamidine transport rate (TbAQP2^I110W): 0.000216 pmol/10E7 cells/s
Pentamidine transport rate (TbAQP2^L264R): 0.00017 pmol/10E7 cells/s
Pentamidine transport rate AVG (TbAQP2 L84M): 0.003585 pmol/10E7 cells/s
EC50 [8]: 27.5 nM
glycerol uptake ([8]; log[inhibitor] -3.60): 6.78e-20
glycerol uptake ([8]; log[inhibitor] -6.48): 0.000111
glycerol uptake ([8]; log[inhibitor] -7.00): 0.000765
glycerol uptake ([8]; log[inhibitor] -7.52): 0.00147
glycerol uptake ([8]; log[inhibitor] -8.00): 0.002105
glycerol uptake ([8]; log[inhibitor] -8.48): 0.002143
glycerol uptake ([8]; log[inhibitor] -9.00): 0.002263
glycerol uptake ([8]; log[inhibitor] -9.48): 0.002177
pentamidine uptake ([9]; log[inhibitor] -3.60): -1.5e-19
pentamidine uptake ([9]; log[inhibitor] -6.48): 0.001052
pentamidine uptake ([9]; log[inhibitor] -7.00): 0.005102
pentamidine uptake ([9]; log[inhibitor] -7.52): 0.006394
pentamidine uptake ([9]; log[inhibitor] -8.00): 0.007854
pentamidine uptake ([9]; log[inhibitor] -8.48): 0.008733
pentamidine uptake ([9]; log[inhibitor] -9.00): 0.008545
pentamidine uptake ([9]; log[inhibitor] -9.48): 0.009352
